# Experimental data published in patent US20100215653A1, “METHODS OF TREATING NEOPLASTIC, AUTOIMMUNE AND INFLAMMATORY DISEASES” (Seattle Genetics, Inc., priority 2006, published 2010).
# Entries after “also recorded” stand apart in the source; their conditions may differ.
# Assays:
# [1] = system: primary human macrophages; assay: Cell viability (CelltiterGlo) of primary human macrophages; format: cell-based; settings: 24 to 72 hours of exposure to increasing concentrations (FIG. 8)
# Method: Macrophages were harvested, counted, and cultured in 96-well plates at 35,000 cells per well. G-CSF-mobilized CD14^+ monocytes (Cambrex) were cultured in 96-well plates at 100,000 cells per well (adherent cells) in sterile polypropylene dishes (non-adherent cells).
# [2] = system: TF1-α cells; assay: TF1-α disseminated MDR-positive AML model in SCID mice; format: in vivo
# Description: (§1) The MDR-negative HL60 cell line and the MDR-positive HEL9217 and TF1-α cell lines were used. […] Disease symptoms typically developed between about 35 and about 80 days, and included hind limb paralysis, scruffy coat, weight loss, palpable tumors, and/or tumor masses in bone, peritoneal cavity, or soft tissues. Human CD33+ tumor cells were detected in the blood, bone marrow, and lymph nodes of the majority of the mice by flow cytometry (FIG. 25). Solid tumors associated with bone or soft tissues were found in 20 to 60% of the mice.
# [3] = system: advanced myeloid malignancies; assay: Phase I single-arm dose escalation trial; format: in vivo, human
# Method: Entry criteria included CD33 expression on >50% of the marrow blasts to ensure that adequate target antigen was present. […] Clinical response was assessed by bone marrow morphology and hematologic improvement. […] Among AML patients, 6 had antecedent hematologic disorder. Dosing cohorts included 1.5 (6), 2.5 (4), 4 (4), and 8 mg/kg (17).
# [4] = system: primary human macrophages; assay: Macrophage migration in response to chemoattractants (CytoSelect Cell Migration Assay); format: cell-based
# Method: The migration of macrophages in response to challenge with plating media containing 10% human serum, 20% conditioned tumor cell media, or 50 ng/ml TGF-β, VEGF, TNF-α, or IFN-γ was evaluated using the CytoSelect Cell Migration Assay (Cell Biolabs, San Diego, Calif.). […] The study was stopped 18 hours later and migration was evaluated after dissociation of the cells from the membrane followed by detection with Cyquant GR dye.
# The migration of macrophages in response to challenge with plating media containing 10% human serum or 20% conditioned tumor cell media was evaluated using the CytoSelect Cell Migration Assay (Cell Biolabs, San Diego, Calif.). […] The studies were stopped 18 h later and migration was evaluated after dissociation of the cells from the membrane followed by detection with Cyquant GR dye.
# [5] = system: HEL 92.1.7 cells; assay: Complement-dependent cytotoxicity (CDC) activity; format: cell-based, human; settings: MDR+, CD33-positive HEL 92.1.7 cells (FIG. 4)
# Method: The purpose of this study was to determine whether the cytotoxic effects of an anti-CD33 antibody (HuM195) on AML cells could be enhanced by combination treatment with chemotherapeutic drugs. An MDR^+, CD33-positive AML cell line (HEL 92.1.7) was either untreated or preincubated with the indicated concentrations of thalidomide or 5-azacytidine for two hours prior to exposure to the anti-CD33 Ab. Cytotoxic activity was measured using a complement-dependent cytotoxicity (CDC) activity.
# [6] = system: human CD14+ monocytes; assay: Cytokine, chemokine and growth factor production by human CD14+ monocytes; format: cell-based
# Method: Tissue culture media was harvested 18 h later for cytokine analyses by ELISA or Searchlight (Pierce Endogen, Rockville, Ill.).
# [7] = molecular target: CD33 (Homo sapiens, UniProt P20138); assay: Recruitment of SHP-1 / SHP-2 / Syk to CD33 (CD33 immunoprecipitation, Western blot); format: cell-based; design: endogenous in cells; host or cells: HL-60, U937; primary human CD14+ monocytes and PBMC-derived macrophages
# Chain of CD33 (P20138 18-364): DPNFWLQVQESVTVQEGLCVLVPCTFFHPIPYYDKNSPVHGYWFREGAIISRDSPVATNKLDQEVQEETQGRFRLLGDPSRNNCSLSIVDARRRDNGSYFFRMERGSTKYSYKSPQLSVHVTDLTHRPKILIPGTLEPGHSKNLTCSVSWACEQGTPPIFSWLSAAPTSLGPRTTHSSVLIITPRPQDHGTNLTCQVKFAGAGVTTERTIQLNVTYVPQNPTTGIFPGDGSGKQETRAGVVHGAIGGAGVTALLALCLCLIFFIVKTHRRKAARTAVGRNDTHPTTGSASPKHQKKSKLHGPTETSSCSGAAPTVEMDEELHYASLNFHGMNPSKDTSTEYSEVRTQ
# Method: To determine whether the humanized M195 antibody also recruits SHP phosphatases, HL-60 cells were treated with soluble or cross-linked anti-CD33 antibodies. Cell extracts were prepared and CD33 was immunoprecipitated with an anti-CD33 antibody (MY9 clone). Western blotting was performed with an anti-SHP-1 antibody (sc-287; Santa Cruz Biotechnology, Inc., Santa Cruz, Calif.).
# To prepare deglycosylated SGN-33, the antibody was treated with PN-glycosidase F (New England BioLabs, Ipswich, Mass.). Deglycosylation was confirmed by CE-SDS. […] Cell lysates were prepared and CD33 immunoprecipitated using an anti-CD33 rabbit polyclonal antibody (Santa Cruz Biotechnology, Santa Cruz, Calif.) prior to SDS PAGE gel electrophoresis. Western blot analyses of these samples were performed using the 4G10 phosphotyrosine antibody (Upstate Biotechnology, Temucula, Calif.), anti-CD33 antibody (NovoCastra, Norwell, Mass.), and anti-SHP-1 antibody (Calbiochem, San Diego, Calif.). Control lysate for SHP-1 was prepared from a B cell lymphoma cell line.
# [8] = system: KG-1 AML cell line; assay: Cytokine production by KG-1 AML cell line after TNF-alpha; format: cell-based, human; settings: 2.5 μg/ml pre-treatment, then 1 ng/ml TNF-alpha, 18 h
# Method: Media was harvested 18 h later for cytokine analyses.
# [9] = system: AML tumor cells (KG-1 HEL9217, and TF1α); assay: ADCC, 51Cr release assay with NK effector cells; format: cell-based, human; settings: MDR-positive and MDR-negative AML cells; effector to target ratio 10:1 (FIG. 27A)
# Method: (§2) Target AML tumor cells (KG-1 HEL9217, and TF1α) were labeled with Na^51CrO4 and mixed with enriched CD16^+ effector (NK) cells, prepared using PBMCs from normal donors. The effector to target cell ratio was 10:1. […] Macrophages were labeled with CD11b−FITC or CD14-FITC antibody. Flow cytometric analyses of dual labeled (PKH67+CD11b+ or PKH67+CD14+) cells was used to determine specific uptake (phagocytosis). […] Media were collected 18 h later and analyzed by ELISA for IL-8 or MCP-1.
# Viable NK cells were pre-treated for 2 to 3 h with lenalidomide or thalidomide (as described in FIG. 23) prior to addition to target cells.
# [10] = system: AML tumor cell lines; assay: IL-8 / MCP-1 production by AML tumor cell lines after TNF-α (ELISA); format: cell-based, human; settings: 10 μg/ml SGN-33 before 1 ng/ml TNF-α; 18 h; p<0.05, p<0.01 (FIG. 27C)
# Method: as §2
# [11] = system: HEL9217 cells; assay: HEL9217 disseminated MDR-positive AML model in SCID mice; format: in vivo
# Description: as §1
substance,measurement,setting,value
"SGN-33: anti-CD33 antibody, a humanized version of mouse monoclonal antibody M195",cell viability of macrophages,[1],not due to an adverse effect; also recorded: does not affect the viability
same,increase of survival,"[2]; MDR-positive TF1-α model, 4 doses at 10 or 30 mg/kg, p<0.025",greater than 40 days
same,survival,"[2]; TF1-α model, SCID mice, q4dx4, p<0.005 (FIG. 26)",> 100 days
same,Grade 4 adverse events considered related to antibody,[3]; 31 patients,none
same,patients achieving CR,[3]; among 18 patients with AML,4
same,patients achieving CR with incomplete platelet recovery,[3]; among 18 patients with AML,1
same,accumulation,[3]; repeat dosing,documented with repeat dosing
same,dose limiting toxicity,"[3]; weekly iv 1.5 to 8 mg/kg for 5 weeks, 31 patients",has not been observed
same,macrophage migration,"[4]; 10% human serum or 20% conditioned media from RPMI 8226 cells, p<0.05 (FIG. 21)",significantly reduced the migration
same,blocking of migration of neuraminidase-treated macrophages,"[4]; SGN-33 added to neuraminidase-treated macrophages, serum or tumor cell conditioned media (FIG. 14C)",greater blocking effect
same,lysis of AML cells (CDC),[5],increased lysis of AML cell lines in a dose-dependent manner
same,"basal and IFN-γ stimulated levels of IL-6, MCP-1, TNF-α, IL-8; IFN-γ stimulated level of RANTES","[6]; adherent CD14+ monocytes, 48 h (FIG. 10)",reduced the basal levels and IFN-γ stimulated levels
same,"basal and conditioned media stimulated levels of IL-6, MCP-1, IL-8; conditioned media stimulated level of RANTES","[6]; adherent CD14+ monocytes, RPMI-8228 conditioned media (FIG. 11)",reduced the basal levels and the RPMI-8228 conditioned media stimulated levels
same,level of TNF-α,"[6]; adherent CD14+ monocytes, basal and RPMI-8228 conditioned media stimulated (FIG. 11)","reduced the basal level, but not the RPMI-8228 conditioned media stimulated level"
same,"levels of IL-6, IL-8, TNF-α and MCP-1",[6]; non-adherent CD14+ monocytes exposed to SGN-33 (FIG. 12),small increases
same,"production of cytokines, chemokines and growth factors","[6]; non-adherent CD14+ monocytes, IFN-γ (FIG. 12)","not inhibited by SGN-33, except for the basal level of RANTES"
same,"IFN-γ-stimulated production of IL-1β, IL-10, IL-12 and MIP-1α","[6]; primary human monocytes treated 1 hr before IFN-γ, 18 h, p<0.001 (FIG. 19)",significantly reduced
same,levels of TNF-α,"[6]; primary human monocytes, various doses 1 hr before IFN-γ, 18 h, p<0.05 (FIG. 20)",significantly reduced levels of TNF-α in a dose-dependent manner
same,recruitment of SHP-1 to the CD33 complex,"[7]; HL-60 and monocytes, 30 minutes (FIG. 16)",resulted in recruitment of SHP-1 to the CD33 complex
same,recruitment of SHP-2 or Syk,"[7]; HL-60 cells, data not shown",did not recruit SHP-2 or Syk
same,"production of IL-8, IP-10, MIP1β, RANTES and MCP-1",[8],"reduced the production of IL-8, IP-10, MIP1β, RANTES, and MCP-1"
same,ADCC activity (cell lysis),[9],mediated antibody-dependent cell cytotoxity; also recorded: mediate cell lysis of MDR− and MDR+AML tumor cell lines
same,production of cytokines (IL-8 or MCP-1),[10],reduced cytokine production; also recorded: significantly reduced the production of cytokines
same,survival,"[11]; HEL9217 model, SCID mice, q4dx4, p<0.005 (FIG. 26)",> 80 days
same,increase of survival,"[11]; MDR-positive HEL9217 model, 4 doses at 10 or 30 mg/kg, p<0.025",greater than 40 days
